Laboratory results published in ChEMBL document CHEMBL1153701, “Synthesis and evaluation of antiallodynic and anticonvulsant activity of novel amide and urea derivatives of valproic acid analogues” (2009).
Activity calls are given as the source filed them. No cut-off for these calls is given here.

What was measured:
Mus musculus [1] = test: Antiepileptic activity in ip dosed CF1 mouse assessed as inhibition of maximal electroshock-induced seizures; assay type: functional
Rattus norvegicus [2] = test: Antiallodynic activity in ip dosed rat assessed as protection against spinal nerve ligation-induced neuropathic pain; assay type: functional
Rattus norvegicus [3] = species: Rattus norvegicus; test: Ratio of ED50 for antiallodynic activity in rat assessed as protection against spinal nerve ligation-induced neuropathic pain to ED50 for antiepileptic activity in rat by maximal electroshock-induced seizures assay; assay type: functional
Mus musculus [4] = test: Antiepileptic activity in CF1 mouse assessed as inhibition of subcutaneous pentylenetetrazole-induced seizures at 30 mg/kg, ip after 4 hrs; assay type: functional, organism-based; design: dose 30 mg/kg
Mus musculus [5] = test: Antiepileptic activity in CF1 mouse assessed as inhibition of maximal electroshock-induced seizures at 300 mg/kg, ip after 0.5 hrs; assay type: functional, organism-based; design: dose 300 mg/kg
Mus musculus [6] = test: Antiepileptic activity in CF1 mouse assessed as inhibition of subcutaneous pentylenetetrazole-induced seizures at 300 mg/kg, ip after 4 hrs; assay type: functional, organism-based; design: dose 300 mg/kg
Mus musculus [7] = test: Neurotoxicity in CF1 mouse assessed as protection against motor impairment at 300 mg/kg, ip after 4 hrs by rotarod test; assay type: functional, organism-based; design: dose 300 mg/kg
Mus musculus [8] = test: Neurotoxicity in CF1 mouse assessed as protection against motor impairment at 30 mg/kg, ip after 4 hrs by rotarod test; assay type: functional, organism-based; design: dose 30 mg/kg
Mus musculus [9] = test: Neurotoxicity in CF1 mouse assessed as protection against motor impairment at 100 mg/kg, ip after 4 hrs by rotarod test; assay type: functional, organism-based; design: dose 100 mg/kg
Mus musculus [10] = test: Antiepileptic activity in CF1 mouse assessed as inhibition of maximal electroshock-induced seizures at 300 mg/kg, ip after 4 hrs; assay type: functional, organism-based; design: dose 300 mg/kg
Mus musculus [11] = test: Neurotoxicity in CF1 mouse assessed as protection against motor impairment at 300 mg/kg, ip after 0.5 hrs by rotarod test; assay type: functional, organism-based; design: dose 300 mg/kg
Rattus norvegicus [12] = test: Antiallodynic activity in rat assessed as protection against spinal nerve ligation-induced neuropathic pain at 80 mg/kg, ip after 240 mins; assay type: functional, organism-based; design: dose 80 mg/kg
Mus musculus [13] = test: Antiepileptic activity in CF1 mouse assessed as inhibition of subcutaneous pentylenetetrazole-induced seizures at 30 mg/kg, ip after 0.5 hrs; assay type: functional, organism-based; design: dose 30 mg/kg
Mus musculus [14] = test: Neurotoxicity in CF1 mouse assessed as protection against motor impairment at 100 mg/kg, ip after 0.5 hrs by rotarod test; assay type: functional, organism-based; design: dose 100 mg/kg
Mus musculus [15] = test: Antiepileptic activity in CF1 mouse assessed as inhibition of subcutaneous pentylenetetrazole-induced seizures at 300 mg/kg, ip after 0.5 hrs; assay type: functional, organism-based; design: dose 300 mg/kg
Mus musculus [16] = test: Antiepileptic activity in CF1 mouse assessed as inhibition of maximal electroshock-induced seizures at 100 mg/kg, ip after 0.5 hrs; assay type: functional, organism-based; design: dose 100 mg/kg
Mus musculus [17] = test: Antiepileptic activity in CF1 mouse assessed as inhibition of maximal electroshock-induced seizures at 30 mg/kg, ip after 4 hrs; assay type: functional, organism-based; design: dose 30 mg/kg
Mus musculus [18] = test: Antiepileptic activity in CF1 mouse assessed as inhibition of maximal electroshock-induced seizures at 100 mg/kg, ip after 4 hrs; assay type: functional, organism-based; design: dose 100 mg/kg
Mus musculus [19] = test: Antiepileptic activity in CF1 mouse assessed as inhibition of subcutaneous pentylenetetrazole-induced seizures at 100 mg/kg, ip after 0.5 hrs; assay type: functional, organism-based; design: dose 100 mg/kg
Mus musculus [20] = test: Antiepileptic activity in CF1 mouse assessed as inhibition of subcutaneous pentylenetetrazole-induced seizures at 100 mg/kg, ip after 4 hrs; assay type: functional, organism-based; design: dose 100 mg/kg
Mus musculus [21] = test: Neurotoxicity in CF1 mouse assessed as protection against motor impairment at 30 mg/kg, ip after 0.5 hrs by rotarod test; assay type: functional, organism-based; design: dose 30 mg/kg
Mus musculus [22] = test: Antiepileptic activity in CF1 mouse assessed as inhibition of maximal electroshock-induced seizures at 30 mg/kg, ip after 0.5 hrs; assay type: functional, organism-based; design: dose 30 mg/kg
Rattus norvegicus [23] = test: Antiallodynic activity in rat assessed as protection against spinal nerve ligation-induced neuropathic pain at 80 mg/kg, ip after 60 mins; assay type: functional, organism-based; design: dose 80 mg/kg
Rattus norvegicus [24] = test: Antiallodynic activity in rat assessed as protection against spinal nerve ligation-induced neuropathic pain at 80 mg/kg, ip after 30 mins; assay type: functional, organism-based; design: dose 80 mg/kg
Rattus norvegicus [25] = test: Antiallodynic activity in rat assessed as protection against spinal nerve ligation-induced neuropathic pain at 80 mg/kg, ip after 180 mins; assay type: functional, organism-based; design: dose 80 mg/kg
Rattus norvegicus [26] = test: Antiallodynic activity in rat assessed as protection against spinal nerve ligation-induced neuropathic pain at 80 mg/kg, ip after 120 mins; assay type: functional, organism-based; design: dose 80 mg/kg

SMILES	ED50 (Mus musculus [1])	Activity (Mus musculus [4])	Activity (Mus musculus [5])	Activity (Mus musculus [6])	Activity (Mus musculus [7])	Activity (Mus musculus [8])	Activity (Mus musculus [9])	Activity (Mus musculus [10])	Activity (Mus musculus [11])	Activity (Mus musculus [13])	Activity (Mus musculus [14])	Activity (Mus musculus [15])	Activity (Mus musculus [16])	Activity (Mus musculus [17])	Activity (Mus musculus [18])	Activity (Mus musculus [19])	Activity (Mus musculus [20])	Activity (Mus musculus [21])	Activity (Mus musculus [22])	Activity (Rattus norvegicus [24])	also measured
CC(C)C(C(N)=O)C(C)C	51 mg/kg	–	–	–	–	–	–	–	–	–	–	–	–	–	–	–	–	–	–	–	ED50 (Rattus norvegicus [2]): 58 mg/kg; ratio (Rattus norvegicus [3]): 0.88
CCCC(CC(C)C)C(N)=O (configuration not stated)	–	inactive	Active	inactive	inactive	inactive	inactive	inactive	Active	inactive	inactive	Active	inactive	inactive	inactive	inactive	inactive	inactive	inactive	–	Activity (Rattus norvegicus [12]): inactive
CCCC(C(N)=O)C(C)C (configuration not stated)	22 mg/kg	–	–	–	–	–	–	–	–	–	–	–	–	–	–	–	–	–	–	–	ED50 (Rattus norvegicus [2]): 42 mg/kg; ratio (Rattus norvegicus [3]): 0.52
CCCC(CCC)C(N)=O [VALPROMIDE]	32 mg/kg	–	–	–	–	–	–	–	–	–	–	–	–	–	–	–	–	–	–	–	ED50 (Rattus norvegicus [2]): 61 mg/kg; ratio (Rattus norvegicus [3]): 0.52
CCCC(C)C(N)=O (configuration not stated)	–	inactive	inactive	inactive	inactive	inactive	inactive	inactive	inactive	inactive	inactive	inactive	inactive	inactive	inactive	inactive	inactive	inactive	inactive	inactive	Activity (Rattus norvegicus [23]): inactive
CNC(=O)CC(C)(C)C	–	inactive	inactive	inactive	inactive	inactive	inactive	inactive	inactive	inactive	inactive	inactive	inactive	inactive	inactive	inactive	inactive	inactive	inactive	inactive	Activity (Rattus norvegicus [12]): inactive; Activity (Rattus norvegicus [23]): inactive; Activity (Rattus norvegicus [25]): inactive; Activity (Rattus norvegicus [26]): inactive
CCC(C)C(CC)C(N)=O (configuration not stated) [VALNOCTAMIDE]	29 mg/kg	–	–	–	–	–	–	–	–	–	–	–	–	–	–	–	–	–	–	–	ED50 (Rattus norvegicus [2]): 52 mg/kg; ratio (Rattus norvegicus [3]): 0.56
CCC(C)C(C(N)=O)C(C)C (configuration not stated)	inactive	inactive	Active	inactive	–	inactive	inactive	inactive	Active	inactive	Active	Active	Active	inactive	inactive	Active	inactive	inactive	inactive	–	ED50 (Rattus norvegicus [2]): 50 mg/kg
CCC(CC)C(N)=O	–	inactive	Active	inactive	inactive	inactive	inactive	inactive	inactive	inactive	–	inactive	–	inactive	inactive	inactive	inactive	inactive	inactive	inactive	Activity (Rattus norvegicus [23]): inactive
CC(C)(C)CC(N)=O	–	inactive	inactive	inactive	–	inactive	inactive	inactive	–	inactive	inactive	inactive	inactive	inactive	inactive	inactive	–	inactive	inactive	inactive	Activity (Rattus norvegicus [12]): inactive; Activity (Rattus norvegicus [23]): inactive; Activity (Rattus norvegicus [25]): inactive; Activity (Rattus norvegicus [26]): inactive
CC(C)(C)C(N)=O	–	inactive	inactive	inactive	inactive	inactive	inactive	inactive	inactive	inactive	inactive	inactive	inactive	inactive	inactive	–	inactive	inactive	inactive	–	Activity (Rattus norvegicus [12]): inactive
CCC(C)C(N)=O (configuration not stated)	–	inactive	inactive	inactive	inactive	inactive	inactive	inactive	inactive	inactive	inactive	inactive	inactive	inactive	inactive	inactive	inactive	inactive	inactive	inactive	Activity (Rattus norvegicus [23]): inactive; Activity (Rattus norvegicus [26]): inactive
CC(C)(C)C(=O)NC(N)=O	–	–	–	–	–	–	–	–	–	–	–	–	–	–	–	–	–	–	–	inactive	Activity (Rattus norvegicus [12]): inactive
